{"source": "the supplement of paper PMC10307832", "assay_in_all_cases": "relative viability (nuclei count vs DMSO), 5 days (fraction); higher = more cells survive", "key": {"[1]": {"system": "NCI-H2009", "method_in_brief": "(§1)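 Lung cancer cell lines, seeded in 1536-well plates, were treated the following day by pin tool with a single drug or with five library-drug doses (not always all listed) in √10 steps on top of a fixed anchor-drug dose. Cells were fixed and nuclei stained in one step after 5 days, and nuclei were counted. Relative viability is the nuclei count for treated wells divided by that for vehicle wells, reported as medians of duplicate plates.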"}, "[2]": {"system": "NCI-H2085", "method_in_brief": "as §1"}, "[3]": {"system": "NCI-H2228", "method_in_brief": "as §1"}, "[4]": {"system": "NCI-H2347", "method_in_brief": "as §1"}, "[5]": {"system": "NCI-H2405", "method_in_brief": "as §1"}, "[6]": {"system": "NCI-H3122", "method_in_brief": "as §1"}, "[7]": {"system": "NCI-H596", "method_in_brief": "as §1"}, "[8]": {"system": "NCI-H838", "method_in_brief": "as §1"}, "[9]": {"system": "PC-14", "method_in_brief": "as §1"}, "[10]": {"system": "RERF-LC-KJ", "method_in_brief": "as §1"}, "[11]": {"system": "SK-MES-1", "method_in_brief": "as §1"}, "[12]": {"system": "SW 1573", "method_in_brief": "as §1"}}}
{"smiles": "O=C(O)CCCCC(CCSCc1ccccc1)SCc1ccccc1", "note": "(configuration not stated) [CPI-613] + Nc1nc2[nH]cc(CCc3ccc(C(=O)N[C@@H](CCC(=O)O)C(=O)O)cc3)c2c(=O)[nH]1 [Pemetrexed] (partner 0.2 µM)", "values": [{"measurement": "relative viability", "setting": "[1]; first compound 158.11 µM", "result": 0.322}, {"measurement": "relative viability", "setting": "[1]; first compound 500 µM", "result": 0.0262}, {"measurement": "relative viability", "setting": "[2]; first compound 5 µM", "result": 0.827}, {"measurement": "relative viability", "setting": "[2]; first compound 15.81 µM", "result": 0.672}, {"measurement": "relative viability", "setting": "[2]; first compound 50 µM", "result": 0.82}, {"measurement": "relative viability", "setting": "[2]; first compound 158.11 µM", "result": 0.492}, {"measurement": "relative viability", "setting": "[2]; first compound 500 µM", "result": 0.18}, {"measurement": "relative viability", "setting": "[3]; first compound 5 µM", "result": 0.362}, {"measurement": "relative viability", "setting": "[3]; first compound 15.81 µM", "result": 0.33}, {"measurement": "relative viability", "setting": "[3]; first compound 50 µM", "result": 0.324}, {"measurement": "relative viability", "setting": "[3]; first compound 158.11 µM", "result": 0.272}, {"measurement": "relative viability", "setting": "[3]; first compound 500 µM", "result": 0.059}, {"measurement": "relative viability", "setting": "[4]; first compound 5 µM", "result": 0.413}, {"measurement": "relative viability", "setting": "[4]; first compound 15.81 µM", "result": 0.434}, {"measurement": "relative viability", "setting": "[4]; first compound 50 µM", "result": 0.405}, {"measurement": "relative viability", "setting": "[4]; first compound 158.11 µM", "result": 0.383}, {"measurement": "relative viability", "setting": "[4]; first compound 500 µM", "result": 0.419}, {"measurement": "relative viability", "setting": "[5]; first compound 5 µM", "result": 1.04}, {"measurement": "relative viability", "setting": "[5]; first compound 15.81 µM", "result": 0.922}, {"measurement": "relative viability", "setting": "[5]; first compound 50 µM", "result": 0.968}, {"measurement": "relative viability", "setting": "[5]; first compound 158.11 µM", "result": 0.63}, {"measurement": "relative viability", "setting": "[5]; first compound 500 µM", "result": 0.336}, {"measurement": "relative viability", "setting": "[6]; first compound 5 µM", "result": 0.19}, {"measurement": "relative viability", "setting": "[6]; first compound 15.81 µM", "result": 0.194}, {"measurement": "relative viability", "setting": "[6]; first compound 50 µM", "result": 0.181}, {"measurement": "relative viability", "setting": "[6]; first compound 158.11 µM", "result": 0.181}, {"measurement": "relative viability", "setting": "[6]; first compound 500 µM", "result": 0.153}, {"measurement": "relative viability", "setting": "[7]; first compound 5 µM", "result": 0.538}, {"measurement": "relative viability", "setting": "[7]; first compound 15.81 µM", "result": 0.48}, {"measurement": "relative viability", "setting": "[7]; first compound 50 µM", "result": 0.519}, {"measurement": "relative viability", "setting": "[7]; first compound 158.11 µM", "result": 0.352}, {"measurement": "relative viability", "setting": "[7]; first compound 500 µM", "result": 0.0295}, {"measurement": "relative viability", "setting": "[8]; first compound 5 µM", "result": 0.232}, {"measurement": "relative viability", "setting": "[8]; first compound 15.81 µM", "result": 0.229}, {"measurement": "relative viability", "setting": "[8]; first compound 50 µM", "result": 0.215}, {"measurement": "relative viability", "setting": "[8]; first compound 158.11 µM", "result": 0.149}, {"measurement": "relative viability", "setting": "[8]; first compound 500 µM", "result": 0.0989}, {"measurement": "relative viability", "setting": "[9]; first compound 5 µM", "result": 0.133}, {"measurement": "relative viability", "setting": "[9]; first compound 15.81 µM", "result": 0.13}, {"measurement": "relative viability", "setting": "[9]; first compound 50 µM", "result": 0.122}, {"measurement": "relative viability", "setting": "[9]; first compound 158.11 µM", "result": 0.121}, {"measurement": "relative viability", "setting": "[9]; first compound 500 µM", "result": 0.0065}, {"measurement": "relative viability", "setting": "[10]; first compound 5 µM", "result": 0.476}, {"measurement": "relative viability", "setting": "[10]; first compound 15.81 µM", "result": 0.47}, {"measurement": "relative viability", "setting": "[10]; first compound 50 µM", "result": 0.461}, {"measurement": "relative viability", "setting": "[10]; first compound 158.11 µM", "result": 0.341}, {"measurement": "relative viability", "setting": "[10]; first compound 500 µM", "result": 0.312}, {"measurement": "relative viability", "setting": "[11]; first compound 5 µM", "result": 0.975}, {"measurement": "relative viability", "setting": "[11]; first compound 15.81 µM", "result": 0.807}, {"measurement": "relative viability", "setting": "[11]; first compound 50 µM", "result": 0.737}, {"measurement": "relative viability", "setting": "[11]; first compound 158.11 µM", "result": 0.17}, {"measurement": "relative viability", "setting": "[11]; first compound 500 µM", "result": 0.104}, {"measurement": "relative viability", "setting": "[12]; first compound 5 µM", "result": 0.771}, {"measurement": "relative viability", "setting": "[12]; first compound 15.81 µM", "result": 0.777}, {"measurement": "relative viability", "setting": "[12]; first compound 50 µM", "result": 0.781}, {"measurement": "relative viability", "setting": "[12]; first compound 158.11 µM", "result": 0.317}, {"measurement": "relative viability", "setting": "[12]; first compound 500 µM", "result": 0.0621}]}
